Common to all, as to experiment: relative viability (nuclei count vs DMSO), 5 days (fraction); higher = more cells survive
Compound in the assay “PAC-1 + Linsitinib”: C=CCc1cccc(/C=N/NC(=O)CN2CCN(Cc3ccccc3)CC2)c1O [PAC-1] + C[C@]1(O)C[C@@H](c2nc(-c3ccc4ccc(-c5ccccc5)nc4c3)c3c(N)nccn32)C1 [Linsitinib] (partner 1 µM)
Put shortly: (§1)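 Nuclei were stained with Hoechst during a one-step fixation (final 0.05% Triton X-100, 1% formaldehyde, 1 ug/ml Hoechst) carried out 5 days after dosing, then counted on 4× images. The cells, lung cancer lines in 1536-well plates, had been dosed by pin tool the day after seeding with one drug alone or a fixed anchor-drug dose plus five library-drug doses (not always all listed) in √10 steps. Relative viability is the nuclei count in treated wells divided by that in vehicle wells, and each value is the median of duplicate plates.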

Compound in the assay “Ibrutinib + Lapatinib”: C=CC(=O)N1CCC[C@@H](n2nc(-c3ccc(Oc4ccccc4)cc3)c3c(N)ncnc32)C1 [Ibrutinib] + CS(=O)(=O)CCNCc1ccc(-c2ccc3ncnc(Nc4ccc(OCc5cccc(F)c5)c(Cl)c4)c3c2)o1 [Lapatinib] (partner 2 µM)
Put shortly: as §1

Compound in the assay “BMX-IN-1 + Vorinostat”: C=CC(=O)Nc1cc(-n2c(=O)ccc3cnc4ccc(-c5ccc(NS(C)(=O)=O)cc5)cc4c32)ccc1C [BMX-IN-1] + O=C(CCCCCCC(=O)Nc1ccccc1)NO [Vorinostat] (partner 1 µM)
Put shortly: as §1

Compound in the assay “PAC-1 + Dasatinib”: C=CCc1cccc(/C=N/NC(=O)CN2CCN(Cc3ccccc3)CC2)c1O [PAC-1] + Cc1nc(Nc2ncc(C(=O)Nc3c(C)cccc3Cl)s2)cc(N2CCN(CCO)CC2)n1 [Dasatinib] (partner 0.075 µM)
A digest of the protocol:
as §1

With Calu-6, the relative viability was 0.826 with PAC-1 + Linsitinib (first compound 0.02 µM); 0.902 in the assay with PAC-1 + Linsitinib (first compound 0.06325 µM); 0.962 with PAC-1 + Linsitinib (first compound 2 µM); 1.07 with Ibrutinib + Lapatinib (first compound 0.005 µM); 1.04 with Ibrutinib + Lapatinib (first compound 0.01581 µM); 0.98 with Ibrutinib + Lapatinib (first compound 0.05 µM). Besides, in the assay with Ibrutinib + Lapatinib (first compound 0.1581 µM), the relative viability stood at 1.13.
On to HCC-44, for which the relative viability amounted to 1.16 with BMX-IN-1 + Vorinostat (first compound 0.02 µM); 1.14 with BMX-IN-1 + Vorinostat (first compound 0.2 µM); 1.19 in the assay with BMX-IN-1 + Vorinostat (first compound 0.6325 µM); 1.12 with BMX-IN-1 + Vorinostat (first compound 2 µM); 0.684 with PAC-1 + Linsitinib (first compound 0.02 µM); 0.68 with PAC-1 + Linsitinib (first compound 0.06325 µM). Further, the relative viability stood at 0.678 in the assay with PAC-1 + Linsitinib (first compound 0.2 µM); 0.712 with PAC-1 + Linsitinib (first compound 2 µM); 1.09 in the assay with Ibrutinib + Lapatinib (first compound 0.005 µM); 0.948 in the assay with Ibrutinib + Lapatinib (first compound 0.01581 µM); 1.02 with Ibrutinib + Lapatinib (first compound 0.05 µM); 1.08 with Ibrutinib + Lapatinib (first compound 0.1581 µM). Besides, the relative viability with Ibrutinib + Lapatinib (first compound 0.5 µM) stood at 1.02.
On to NCI-H1563, for which the relative viability with PAC-1 + Linsitinib (first compound 0.02 µM) worked out at 1.15; with PAC-1 + Linsitinib (first compound 0.06325 µM), 1.32; with PAC-1 + Linsitinib (first compound 0.2 µM), 1.28; in the assay with PAC-1 + Linsitinib (first compound 2 µM), 1.19; in the assay with PAC-1 + Dasatinib (first compound 0.02 µM), 0.446; with PAC-1 + Dasatinib (first compound 0.06325 µM) it was 0.431. In addition, the relative viability with PAC-1 + Dasatinib (first compound 0.2 µM) is 0.44; with PAC-1 + Dasatinib (first compound 2 µM), 0.495; with Ibrutinib + Lapatinib (first compound 0.005 µM), 0.867; with Ibrutinib + Lapatinib (first compound 0.01581 µM) it was 0.866; with Ibrutinib + Lapatinib (first compound 0.05 µM), 0.959; in the assay with Ibrutinib + Lapatinib (first compound 0.1581 µM) it was 0.945. In addition, the relative viability with Ibrutinib + Lapatinib (first compound 0.5 µM) was 1.02.
For LCLC-103H, the relative viability came to 0.724 with BMX-IN-1 + Vorinostat (first compound 0.02 µM); 0.823 with BMX-IN-1 + Vorinostat (first compound 0.2 µM); 0.882 with BMX-IN-1 + Vorinostat (first compound 0.6325 µM); 0.842 in the assay with BMX-IN-1 + Vorinostat (first compound 2 µM); 1.04 with PAC-1 + Linsitinib (first compound 0.02 µM); 1.13 with PAC-1 + Linsitinib (first compound 0.06325 µM). In addition, the relative viability in the assay with PAC-1 + Linsitinib (first compound 0.2 µM) is 1.14; in the assay with PAC-1 + Linsitinib (first compound 2 µM) it was 0.98; with PAC-1 + Dasatinib (first compound 0.02 µM), 0.485; with PAC-1 + Dasatinib (first compound 0.06325 µM), 0.472; in the assay with PAC-1 + Dasatinib (first compound 0.2 µM), 0.409; with PAC-1 + Dasatinib (first compound 2 µM), 0.487.
With IA-LM, the relative viability with BMX-IN-1 + Vorinostat (first compound 0.02 µM) was 0.797; with BMX-IN-1 + Vorinostat (first compound 0.2 µM), 0.807; in the assay with BMX-IN-1 + Vorinostat (first compound 0.6325 µM), 1.03; with BMX-IN-1 + Vorinostat (first compound 2 µM) it was 0.722; with PAC-1 + Linsitinib (first compound 0.02 µM), 0.771; with PAC-1 + Linsitinib (first compound 0.06325 µM), 0.716. In addition, the relative viability came to 0.639 in the assay with PAC-1 + Linsitinib (first compound 0.2 µM); 0.58 with PAC-1 + Linsitinib (first compound 2 µM); 0.792 with Ibrutinib + Lapatinib (first compound 0.005 µM); 0.827 with Ibrutinib + Lapatinib (first compound 0.01581 µM); 0.592 with Ibrutinib + Lapatinib (first compound 0.05 µM); 1.1 in the assay with Ibrutinib + Lapatinib (first compound 0.1581 µM). The relative viability in the assay with Ibrutinib + Lapatinib (first compound 0.5 µM) came to 0.814.
Regarding NCI-H1299, the relative viability came to 0.947 with PAC-1 + Linsitinib (first compound 0.02 µM); 0.963 in the assay with PAC-1 + Linsitinib (first compound 0.06325 µM); 0.953 with PAC-1 + Linsitinib (first compound 0.2 µM); 0.96 with PAC-1 + Linsitinib (first compound 2 µM); 0.973 with Ibrutinib + Lapatinib (first compound 0.005 µM); 0.984 with Ibrutinib + Lapatinib (first compound 0.01581 µM). For the same cell line, the relative viability turned out to be 0.977 with Ibrutinib + Lapatinib (first compound 0.05 µM), 0.979 with Ibrutinib + Lapatinib (first compound 0.1581 µM) and 0.969 in the assay with Ibrutinib + Lapatinib (first compound 0.5 µM).
NCI-H1648: the relative viability was 0.522 in the assay with BMX-IN-1 + Vorinostat (first compound 0.02 µM), 1 with BMX-IN-1 + Vorinostat (first compound 0.2 µM), 0.3 with BMX-IN-1 + Vorinostat (first compound 0.6325 µM) and 0.503 in the assay with BMX-IN-1 + Vorinostat (first compound 2 µM).
Take NCI-H1703: the relative viability with PAC-1 + Linsitinib (first compound 0.02 µM) came to 0.646; with PAC-1 + Linsitinib (first compound 0.06325 µM), 0.423; with PAC-1 + Linsitinib (first compound 0.2 µM), 0.765; with PAC-1 + Linsitinib (first compound 2 µM), 0.932; with Ibrutinib + Lapatinib (first compound 0.05 µM) it was 1.06; in the assay with Ibrutinib + Lapatinib (first compound 0.1581 µM) it was 1.16. Further, the relative viability with Ibrutinib + Lapatinib (first compound 0.5 µM) came to 0.684.
NCI-H2170: the relative viability is 0.724 with BMX-IN-1 + Vorinostat (first compound 0.02 µM); 1.06 with BMX-IN-1 + Vorinostat (first compound 0.2 µM); 0.79 in the assay with BMX-IN-1 + Vorinostat (first compound 0.6325 µM); 0.849 in the assay with BMX-IN-1 + Vorinostat (first compound 2 µM); 0.499 with PAC-1 + Dasatinib (first compound 0.02 µM); 0.506 with PAC-1 + Dasatinib (first compound 0.06325 µM). Besides, the relative viability turned out to be 0.625 with PAC-1 + Dasatinib (first compound 0.2 µM); 0.712 in the assay with PAC-1 + Dasatinib (first compound 2 µM); 0.247 with Ibrutinib + Lapatinib (first compound 0.005 µM); 0.258 with Ibrutinib + Lapatinib (first compound 0.01581 µM); 0.245 with Ibrutinib + Lapatinib (first compound 0.05 µM); 0.25 with Ibrutinib + Lapatinib (first compound 0.1581 µM). The relative viability with Ibrutinib + Lapatinib (first compound 0.5 µM) turned out to be 0.26.
On to NCI-H2342, for which the relative viability in the assay with BMX-IN-1 + Vorinostat (first compound 0.02 µM) came to 0.827; in the assay with BMX-IN-1 + Vorinostat (first compound 0.2 µM), 0.728; in the assay with BMX-IN-1 + Vorinostat (first compound 0.6325 µM), 0.71; in the assay with BMX-IN-1 + Vorinostat (first compound 2 µM), 0.65; with PAC-1 + Dasatinib (first compound 0.02 µM) it was 0.302; with PAC-1 + Dasatinib (first compound 0.06325 µM), 0.311. Besides, the relative viability amounted to 0.295 with PAC-1 + Dasatinib (first compound 0.2 µM) and 0.302 with PAC-1 + Dasatinib (first compound 2 µM).
With NCI-H1623, the relative viability in the assay with PAC-1 + Dasatinib (first compound 0.02 µM) came to 0.513; in the assay with PAC-1 + Dasatinib (first compound 0.06325 µM) it was 0.556; with PAC-1 + Dasatinib (first compound 0.2 µM) it was 0.605; with PAC-1 + Dasatinib (first compound 2 µM) it was 0.533.
SW 900: the relative viability in the assay with BMX-IN-1 + Vorinostat (first compound 0.02 µM) was found to be 0.659; with BMX-IN-1 + Vorinostat (first compound 0.2 µM), 0.548; in the assay with BMX-IN-1 + Vorinostat (first compound 0.6325 µM), 0.678; with BMX-IN-1 + Vorinostat (first compound 2 µM), 0.47; with PAC-1 + Dasatinib (first compound 0.02 µM), 0.766; with PAC-1 + Dasatinib (first compound 0.06325 µM), 0.467. For the same cell line, the relative viability with PAC-1 + Dasatinib (first compound 0.2 µM) is 0.435; with PAC-1 + Dasatinib (first compound 2 µM), 0.927.
Regarding NCI-H441, the relative viability was 0.691 with BMX-IN-1 + Vorinostat (first compound 0.02 µM); 1.03 with BMX-IN-1 + Vorinostat (first compound 0.2 µM); 0.903 in the assay with BMX-IN-1 + Vorinostat (first compound 0.6325 µM); 0.778 with BMX-IN-1 + Vorinostat (first compound 2 µM); 0.519 with PAC-1 + Linsitinib (first compound 0.02 µM); 0.571 in the assay with PAC-1 + Linsitinib (first compound 0.06325 µM). The relative viability in the assay with PAC-1 + Linsitinib (first compound 0.2 µM) stood at 0.496; with PAC-1 + Linsitinib (first compound 2 µM), 0.564; with PAC-1 + Dasatinib (first compound 0.02 µM), 0.593; with PAC-1 + Dasatinib (first compound 0.06325 µM), 0.628; with PAC-1 + Dasatinib (first compound 0.2 µM) it was 0.438; in the assay with PAC-1 + Dasatinib (first compound 2 µM), 0.573.
For the cell line ChaGo-K-1, the relative viability in the assay with BMX-IN-1 + Vorinostat (first compound 0.02 µM) was 0.91; in the assay with BMX-IN-1 + Vorinostat (first compound 0.2 µM), 0.984; in the assay with BMX-IN-1 + Vorinostat (first compound 0.6325 µM) it was 0.835; with BMX-IN-1 + Vorinostat (first compound 2 µM) it was 0.768; in the assay with PAC-1 + Dasatinib (first compound 0.02 µM), 0.653; in the assay with PAC-1 + Dasatinib (first compound 0.06325 µM), 0.647. The results for the relative viability with PAC-1 + Dasatinib (first compound 0.2 µM) and in the assay with PAC-1 + Dasatinib (first compound 2 µM) were 0.534 and 0.619, respectively.
NCI-H1792: the relative viability came to 0.648 in the assay with PAC-1 + Linsitinib (first compound 0.02 µM); 0.602 with PAC-1 + Linsitinib (first compound 0.06325 µM); 0.534 with PAC-1 + Linsitinib (first compound 0.2 µM); 0.579 with PAC-1 + Linsitinib (first compound 2 µM); 0.996 with PAC-1 + Dasatinib (first compound 0.02 µM); 0.77 with PAC-1 + Dasatinib (first compound 0.06325 µM). Moreover, the relative viability came to 0.763 with PAC-1 + Dasatinib (first compound 0.2 µM); 0.755 in the assay with PAC-1 + Dasatinib (first compound 2 µM); 0.907 with Ibrutinib + Lapatinib (first compound 0.005 µM); 0.896 with Ibrutinib + Lapatinib (first compound 0.01581 µM); 0.913 in the assay with Ibrutinib + Lapatinib (first compound 0.05 µM); 0.73 with Ibrutinib + Lapatinib (first compound 0.1581 µM). Besides, the relative viability with Ibrutinib + Lapatinib (first compound 0.5 µM) was found to be 0.912.

For the origin of these results see the supplement of paper PMC10307832.
